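How tested: cells in 96-well plates exposed to compound for 48 hours at five concentrations. Abbreviation: GI50, concentration required for 50% inhibition of growth.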 The source made the active and inactive calls. No stated cut-off is given here; in the data, active = GI50 up to about 1.1 µM and inactive = higher.
Columns and labels:
Assay in all cases: growth of human tumour cells (NCI), 48 h
[1] = system: LXFL 529
[2] = system: XF498
[3] = system: RXF 631
[4] = system: DMS-273
[5] = system: DMS-114
[6] = system: M19-MEL
[7] = system: HOP-18
[8] = system: KM-20L2

Measured: GI50

c1cc2c(ncc3cscc32)s1
inactive: [1] > 100 µM | [2] > 100 µM | [3] > 100 µM | [4] > 100 µM | [5] > 100 µM | [6] > 100 µM

CCC1(CN(C)C)CC/C(=C\c2ccc3c(c2)OCO3)C1=O (stereo not drawn)
inactive: [1] > 100 µM | [7] > 100 µM | [8] 47.2 µM | [3] > 100 µM | [4] > 100 µM | [6] > 100 µM

COc1ccc(NC(=O)CC(=O)N/N=C/c2ccc(N(CCC#N)S(C)(=O)=O)cc2)cc1
inactive: [1] > 100 µM | [7] > 100 µM | [8] > 100 µM | [3] > 100 µM | [4] > 100 µM | [5] > 100 µM | [6] > 100 µM

CCOC(=O)CCC(NC(=O)c1ccc(NCc2ccc3nc(-c4ccccc4)c(Cl)nc3c2)cc1)C(=O)OCC (stereo not drawn)
inactive: [1] 18.2 µM | [8] 80.5 µM | [2] 1.58 µM | [3] 13.2 µM | [4] 21.4 µM | [5] 22.4 µM | [6] 17.4 µM

O=C1c2ccccc2C(=O)N1CCN(CCN1C(=O)c2ccccc2C1=O)Cn1cccn1
inactive: [1] > 100 µM | [8] > 100 µM | [2] > 100 µM | [3] 29 µM | [4] 46.1 µM | [5] 19.5 µM | [6] 69.8 µM

Cc1ccc(S(=O)(=O)NC2(C=O)CCCC3CCCCC32)cc1 (stereo not drawn)
inactive: [1] > 100 µM | [7] > 100 µM | [8] > 100 µM | [3] > 100 µM | [4] > 100 µM | [5] > 100 µM | [6] > 100 µM

COC(=O)c1ccc(/C=C/S(=O)(=O)c2ccccc2)cc1
inactive: [1] > 100 µM | [8] > 100 µM | [2] > 100 µM | [3] > 100 µM | [4] > 100 µM | [5] > 100 µM | [6] > 100 µM

COC(=O)c1ccc2n[se]nc2c1
inactive: [1] > 100 µM | [7] > 100 µM | [8] > 100 µM | [2] > 100 µM | [3] > 100 µM | [4] > 100 µM | [5] > 100 µM | [6] > 100 µM

CC(=O)Nc1ccc(C2C(C(=O)Nc3ccccc3C)=C(C)NC(C)=C2C(=O)Nc2ccccc2C)cc1
inactive: [1] > 100 µM | [7] > 100 µM | [8] > 100 µM | [2] > 100 µM | [3] > 100 µM | [4] > 100 µM | [5] > 100 µM | [6] > 100 µM

— ChEMBL document CHEMBL1201862, “PubChem BioAssay data set” (2004)
